What was measured:
Assay in all cases: relative viability (nuclei count vs DMSO), 5 days (fraction); higher = more cells survive
[1] = compound: O=S(=O)(c1ccccc1)N(CC(F)(F)F)c1ccc(C(O)(C(F)(F)F)C(F)(F)F)cc1 + C[C@]1(O)C[C@@H](c2nc(-c3ccc4ccc(-c5ccccc5)nc4c3)c3c(N)nccn32)C1 [Linsitinib] (partner 1 µM)
In short: (§1)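 Lung cancer cell lines were seeded in 1536-well plates and dosed by pin tool the next day, with either a single drug or a fixed anchor-drug dose combined with five library-drug doses (not always all listed) spaced in √10 steps. Five days later, one step fixed the cells and stained their nuclei (final 0.05% Triton X-100, 1% formaldehyde, 1 ug/ml Hoechst), and nuclei were counted on 4× images. Relative viability is the nuclei count in treated wells divided by the count in vehicle wells, and each value is the median of duplicate plates.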

[2] = compound: O=S(=O)(c1ccccc1)N(CC(F)(F)F)c1ccc(C(O)(C(F)(F)F)C(F)(F)F)cc1 + O=C(c1cc(Cc2n[nH]c(=O)c3ccccc23)ccc1F)N1CCN(C(=O)C2CC2)CC1 [Olaparib] (partner 8 µM)
In short: as §1

[3] = compound: O=S(=O)(c1ccccc1)N(CC(F)(F)F)c1ccc(C(O)(C(F)(F)F)C(F)(F)F)cc1 + Nc1nc2[nH]cc(CCc3ccc(C(=O)N[C@@H](CCC(=O)O)C(=O)O)cc3)c2c(=O)[nH]1 [Pemetrexed] (partner 0.2 µM)
In short: as §1

[4] = compound: C1=CC2=C(C=CC(=C2)C=C3C(=O)NC(=NCC4=CC=CS4)S3)N=C1 [RO-3306] + Cc1cc(Nc2cc(N3CCN(C)CC3)nc(Sc3ccc(NC(=O)C4CC4)cc3)n2)n[nH]1 [Tozasertib] (partner 0.1 µM)
In short: as §1

[5] = compound: O=S(=O)(c1ccccc1)N(CC(F)(F)F)c1ccc(C(O)(C(F)(F)F)C(F)(F)F)cc1 + CCNC(=O)c1noc(-c2cc(C(C)C)c(O)cc2O)c1-c1ccc(CN2CCOCC2)cc1 [Luminespib] (partner 0.01 µM)
In short: as §1

Cell Line | relative viability ([1]; first compound 0.8 µM) | relative viability ([1]; first compound 2.53 µM) | relative viability ([1]; first compound 8 µM) | relative viability ([2]; first compound 0.8 µM) | relative viability ([2]; first compound 2.53 µM) | relative viability ([2]; first compound 8 µM) | relative viability ([3]; first compound 0.8 µM) | relative viability ([3]; first compound 2.53 µM) | relative viability ([3]; first compound 8 µM) | relative viability ([4]; first compound 0.01 µM) | relative viability ([4]; first compound 0.03162 µM) | relative viability ([4]; first compound 0.1 µM) | relative viability ([4]; first compound 0.3162 µM) | relative viability ([4]; first compound 1 µM) | relative viability ([5]; first compound 0.8 µM) | relative viability ([5]; first compound 2.53 µM) | relative viability ([5]; first compound 8 µM)
NCI-H1793 | 0.836 | 0.641 | 0.66 | 0.791 | 0.574 | 0.692 | 0.792 | 0.587 | 0.806 | 0.313 | 0.344 | 0.338 | 0.283 | 0.291 | 0.162 | 0.149 | 0.172
EKVX | 0.897 | 0.946 | 0.931 | 0.836 | 0.757 | 0.661 | 0.388 | 0.362 | 0.292 | 0.415 | 0.361 | 0.382 | 0.359 | 0.356 | 0.84 | 0.576 | 0.73
NCI-H1355 | 0.762 | 0.65 | 0.598 | 0.824 | 0.737 | 0.719 | 1.12 | 1.03 | 1.03 | 0.473 |  | 0.532 | 0.515 | 0.491 | 0.781 | 0.756 | 0.759
CAL-12T | 0.719 | 0.499 | 0.542 | 0.686 | 0.616 | 0.591 | 1.29 | 1.06 | 0.982 | 0.364 | 0.245 | 0.303 | 0.371 | 0.261 | 0.38 | 0.251 | 0.354
NCI-H2085 | 1.07 | 0.888 | 0.844 | 0.745 | 0.686 | 0.742 | 0.751 | 0.8 | 0.869 | 0.763 | 0.775 | 0.78 | 0.712 | 0.641 | 0.46 | 0.371 | 0.428
LOU-NH91 | 0.996 | 0.92 | 0.915 | 0.966 | 0.935 | 0.913 | 0.424 | 0.434 | 0.35 | 0.667 | 0.63 | 0.669 | 0.638 | 0.561 | 0.404 | 0.353 | 0.285
NCI-H1975 | 1.09 | 1.16 | 0.88 | 1.02 | 0.762 | 0.875 | 0.358 | 0.293 | 0.3 | 0.834 | 0.871 | 0.769 | 0.718 | 0.284 | 0.205 | 0.201 | 0.311
NCI-H23 | 0.627 | 0.571 | 0.605 | 0.31 | 0.23 | 0.302 | 0.706 | 0.654 | 0.74 | 0.279 | 0.304 | 0.394 | 0.124 | 0.301 | 0.2 | 0.206 | 0.255
LCLC-103H | 1.06 | 1.17 | 0.936 | 0.813 | 0.737 | 0.772 | 0.457 | 0.465 | 0.467 | 0.439 | 0.45 | 0.405 | 0.458 | 0.499 | 1.07 | 0.862 | 0.845
